ChEMBL document CHEMBL3407338, “Synthesis and structure-activity relationship of novel 1,4-diazabicyclo[2.2.2]octane derivatives as potent antimicrobial agents” (Eur J Med Chem, 2015)

Columns and labels:
Format in all cases: functional
Salmonella enterica [1] = experiment: Antimicrobial activity against Salmonella enterica ATCC 14028 at 1 ug/ml after 24 hrs by agar diffusion method; details: ATCC 14028, 24 h, read-out: DIZ
Staphylococcus aureus [2] = experiment: Antimicrobial activity against Staphylococcus aureus ATCC 25923 at 1 ug/ml after 24 hrs by agar diffusion method; details: ATCC 25923, 24 h, read-out: DIZ
Pseudomonas aeruginosa [3] = experiment: Antimicrobial activity against Pseudomonas aeruginosa ATCC 9027 at 1 ug/ml after 24 hrs by agar diffusion method; details: ATCC 9027, 24 h, read-out: DIZ
Candida albicans [4] = experiment: Antimicrobial activity against Candida albicans ATCC 32354 at 1 ug/ml after 24 hrs by agar diffusion method; details: ATCC 32354, 24 h, read-out: DIZ
Escherichia coli [5] = experiment: Antimicrobial activity against Escherichia coli ATCC 25922 at 1 ug/ml after 24 hrs by agar diffusion method; details: ATCC 25922, 24 h, read-out: DIZ
Bacillus subtilis [6] = experiment: Antimicrobial activity against Bacillus subtilis ATCC 6633 at 1 ug/ml after 24 hrs by agar diffusion method; details: ATCC 6633, 24 h, read-out: DIZ
Staphylococcus aureus [7] = experiment: Antimicrobial activity against 10^4 CFU/ml Staphylococcus aureus ATCC 25923 after 22 hrs by serial microdilution method; details: ATCC 25923, 22 h
Escherichia coli [8] = experiment: Antimicrobial activity against 10^7 CFU/ml Escherichia coli ATCC 25922 after 22 hrs by serial microdilution method; details: ATCC 25922, 22 h
Candida albicans [9] = experiment: Antimicrobial activity against 10^4 CFU/ml Candida albicans ATCC 32354 after 22 hrs by serial microdilution method; details: ATCC 32354, 22 h
Escherichia coli [10] = experiment: Antimicrobial activity against 10^4 CFU/ml Escherichia coli ATCC 25922 after 22 hrs by serial microdilution method; details: ATCC 25922, 22 h
Pseudomonas aeruginosa [11] = experiment: Antimicrobial activity against 10^4 CFU/ml Pseudomonas aeruginosa ATCC 9027 after 22 hrs by serial microdilution method; details: ATCC 9027, 22 h
Staphylococcus aureus [12] = experiment: Antimicrobial activity against 10^7 CFU/ml Staphylococcus aureus ATCC 25923 after 22 hrs by serial microdilution method; details: ATCC 25923, 22 h
Bacillus subtilis [13] = experiment: Antimicrobial activity against 10^4 CFU/ml Bacillus subtilis ATCC 6633 after 22 hrs by serial microdilution method; details: ATCC 6633, 22 h
Pseudomonas aeruginosa [14] = experiment: Antimicrobial activity against 10^7 CFU/ml Pseudomonas aeruginosa ATCC 9027 after 22 hrs by serial microdilution method; details: ATCC 9027, 22 h
Candida albicans [15] = experiment: Antimicrobial activity against 10^7 CFU/ml Candida albicans ATCC 32354 after 22 hrs by serial microdilution method; details: ATCC 32354, 22 h
Bacillus subtilis [16] = experiment: Antimicrobial activity against 10^7 CFU/ml Bacillus subtilis ATCC 6633 after 22 hrs by serial microdilution method; details: ATCC 6633, 22 h
Salmonella enterica [17] = experiment: Antimicrobial activity against 10^7 CFU/ml Salmonella enterica ATCC 14028 after 22 hrs by serial microdilution method; details: ATCC 14028, 22 h
Salmonella enterica [18] = experiment: Antimicrobial activity against 10^4 CFU/ml Salmonella enterica ATCC 14028 after 22 hrs by serial microdilution method; details: ATCC 14028, 22 h

Row | MIC (Staphylococcus aureus [7]) [µg/mL] | MIC (Escherichia coli [8]) [µg/mL] | MIC (Candida albicans [9]) [µg/mL] | MIC (Escherichia coli [10]) [µg/mL] | MIC (Pseudomonas aeruginosa [11]) [µg/mL] | MIC (Staphylococcus aureus [12]) [µg/mL] | MIC (Bacillus subtilis [13]) [µg/mL] | Compound | zone of inhibition at 1 µg/mL (Salmonella enterica [1]) [mm] | zone of inhibition at 1 µg/mL (Staphylococcus aureus [2]) [mm] | zone of inhibition at 1 µg/mL (Pseudomonas aeruginosa [3]) [mm] | zone of inhibition at 1 µg/mL (Candida albicans [4]) [mm] | zone of inhibition at 1 µg/mL (Escherichia coli [5]) [mm] | zone of inhibition at 1 µg/mL (Bacillus subtilis [6]) [mm] | MBC (Staphylococcus aureus [7]) [µg/mL] | MBC (Escherichia coli [8]) [µg/mL] | MBC (Candida albicans [9]) [µg/mL] | MBC (Escherichia coli [10]) [µg/mL] | MBC (Pseudomonas aeruginosa [11]) [µg/mL] | MBC (Staphylococcus aureus [12]) [µg/mL] | MBC (Bacillus subtilis [13]) [µg/mL] | other results
1 | – | – | – | – | – | – | – | CC[N+]12CC[N+](CCCCC[N+]34CC[N+](CC)(CC3)CC4)(CC1)CC2 | 0 | 0 | 0 | 0 | 0 | 0 | – | – | – | – | – | – | – | –
2 | – | – | – | – | – | – | – | CCC[N+]12CC[N+](CCCCC[N+]34CC[N+](CCC)(CC3)CC4)(CC1)CC2 | 0 | 0 | 0 | 0 | 0 | 0 | – | – | – | – | – | – | – | –
3 | – | – | – | – | – | – | – | CCCCCCC[N+]12CC[N+](CCCCC[N+]34CC[N+](CCCCCCC)(CC3)CC4)(CC1)CC2 | 0 | 5 | 0 | 0 | 4 | 5 | – | – | – | – | – | – | – | –
4 | 12.5 | 25 | < 1.6 | 12.5 | 25 | 50 | 25 | CCCCCCCC[N+]12CC[N+](CCCCC[N+]34CC[N+](CCCCCCCC)(CC3)CC4)(CC1)CC2.[Br-].[Br-].[Br-].[Br-] | 4 | 8 | 0 | 0 | 4 | 10 | 100 | 100 | < 1.6 | 50 | 50 | > 100 | 50 | MBC (Pseudomonas aeruginosa [14]): > 100 µg/mL; MIC (Pseudomonas aeruginosa [14]): > 100 µg/mL; MBC (Candida albicans [15]): < 1.6 µg/mL; MIC (Candida albicans [15]): < 1.6 µg/mL; MBC (Bacillus subtilis [16]): 100 µg/mL; MIC (Bacillus subtilis [16]): 50 µg/mL; MBC (Salmonella enterica [17]): > 100 µg/mL; MIC (Salmonella enterica [17]): 100 µg/mL; MBC (Salmonella enterica [18]): 100 µg/mL; MIC (Salmonella enterica [18]): 100 µg/mL
5 | 12.5 | 6.3 | < 1.6 | 6.3 | 12.5 | 12.5 | 6.3 | CCCCCCCCC[N+]12CC[N+](CCCCC[N+]34CC[N+](CCCCCCCCC)(CC3)CC4)(CC1)CC2.[Br-].[Br-].[Br-].[Br-] | 9 | 10 | 0 | 10 | 10 | 12 | 25 | 25 | < 1.6 | 12.5 | 12.5 | 50 | 6.3 | MBC (Pseudomonas aeruginosa [14]): 100 µg/mL; MIC (Pseudomonas aeruginosa [14]): 50 µg/mL; MBC (Candida albicans [15]): < 1.6 µg/mL; MIC (Candida albicans [15]): < 1.6 µg/mL; MBC (Bacillus subtilis [16]): 25 µg/mL; MIC (Bacillus subtilis [16]): 25 µg/mL; MBC (Salmonella enterica [17]): 50 µg/mL; MIC (Salmonella enterica [17]): 25 µg/mL; MBC (Salmonella enterica [18]): 50 µg/mL; MIC (Salmonella enterica [18]): 12.5 µg/mL
